Reference: patent US20160145257A1, “SUBSTITUTED XANTHINES AND METHODS OF USE THEREOF” (Hydra Biosciences, Inc., priority 2013, published 2016)

Tests used:
hTRPC5 = molecular target: T1, hTRPC5 (Homo sapiens, UniProt Q9UL62); assay: Whole-cell patch clamp, block of LaCl3-activated TRPC5 inward current; assay type: cell-based; conditions: TRPC5-expressing HEK293 TREx cells, 80 μM LaCl3, inward current, IC50 estimated from 5 μM and 500 nM, read-out: hTRPC5 Patch La3+ Inwd (nM) (All Batches)
T1 construct: expressed in transfected cells; host or cells: HEK293 TREx cells with inducible TRPC5 expression
T1 sequence (Q9UL62 1-973): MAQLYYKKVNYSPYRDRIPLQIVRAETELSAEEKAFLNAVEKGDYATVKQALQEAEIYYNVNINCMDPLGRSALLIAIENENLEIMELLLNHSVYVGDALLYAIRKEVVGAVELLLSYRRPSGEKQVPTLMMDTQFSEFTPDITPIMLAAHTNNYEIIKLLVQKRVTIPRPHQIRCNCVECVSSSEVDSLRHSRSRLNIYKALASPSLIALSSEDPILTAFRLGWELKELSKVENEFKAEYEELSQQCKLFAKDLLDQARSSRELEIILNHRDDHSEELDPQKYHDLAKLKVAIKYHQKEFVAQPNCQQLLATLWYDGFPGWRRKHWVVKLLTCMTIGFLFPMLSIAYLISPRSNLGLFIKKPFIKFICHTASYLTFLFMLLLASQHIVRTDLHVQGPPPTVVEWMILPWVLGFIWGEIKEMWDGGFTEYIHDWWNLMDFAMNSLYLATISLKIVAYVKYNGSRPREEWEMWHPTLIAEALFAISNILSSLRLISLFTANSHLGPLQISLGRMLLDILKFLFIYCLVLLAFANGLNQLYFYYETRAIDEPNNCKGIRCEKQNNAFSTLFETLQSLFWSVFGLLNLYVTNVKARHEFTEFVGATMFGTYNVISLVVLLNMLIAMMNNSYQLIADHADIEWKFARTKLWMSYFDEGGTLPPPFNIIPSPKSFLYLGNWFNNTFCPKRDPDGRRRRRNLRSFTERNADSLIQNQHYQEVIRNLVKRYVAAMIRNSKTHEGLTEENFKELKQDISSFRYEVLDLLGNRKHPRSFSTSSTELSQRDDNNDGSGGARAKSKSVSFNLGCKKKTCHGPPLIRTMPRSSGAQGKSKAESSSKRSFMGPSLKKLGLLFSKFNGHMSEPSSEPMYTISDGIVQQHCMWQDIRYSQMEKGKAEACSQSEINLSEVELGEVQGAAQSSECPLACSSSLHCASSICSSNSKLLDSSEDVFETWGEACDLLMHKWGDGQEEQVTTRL
In short: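 Whole-cell recordings in induced TRPC5-expressing HEK293 TREx cells, holding −40 mV, 400 ms ramps −120 to +100 mV every 5 s; current activated by 80 μM external LaCl3 and 1,400 nM pipette free Ca2+ (pH 7.2 internal, 7.4 external). Inward block at −80 mV, with LaCl3 present; IC50 estimated from testing at 5 μM and 500 nM.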

hTRPC4 = molecular target: T2, hTRPC4 (Homo sapiens, UniProt Q9UBN4); assay: Whole-cell patch clamp, block of TRPC4 inward current; assay type: cell-based; conditions: read-out: hTRPC4 Patch Inwd (nM) (All Batches)
T2 sequence (Q9UBN4 1-977): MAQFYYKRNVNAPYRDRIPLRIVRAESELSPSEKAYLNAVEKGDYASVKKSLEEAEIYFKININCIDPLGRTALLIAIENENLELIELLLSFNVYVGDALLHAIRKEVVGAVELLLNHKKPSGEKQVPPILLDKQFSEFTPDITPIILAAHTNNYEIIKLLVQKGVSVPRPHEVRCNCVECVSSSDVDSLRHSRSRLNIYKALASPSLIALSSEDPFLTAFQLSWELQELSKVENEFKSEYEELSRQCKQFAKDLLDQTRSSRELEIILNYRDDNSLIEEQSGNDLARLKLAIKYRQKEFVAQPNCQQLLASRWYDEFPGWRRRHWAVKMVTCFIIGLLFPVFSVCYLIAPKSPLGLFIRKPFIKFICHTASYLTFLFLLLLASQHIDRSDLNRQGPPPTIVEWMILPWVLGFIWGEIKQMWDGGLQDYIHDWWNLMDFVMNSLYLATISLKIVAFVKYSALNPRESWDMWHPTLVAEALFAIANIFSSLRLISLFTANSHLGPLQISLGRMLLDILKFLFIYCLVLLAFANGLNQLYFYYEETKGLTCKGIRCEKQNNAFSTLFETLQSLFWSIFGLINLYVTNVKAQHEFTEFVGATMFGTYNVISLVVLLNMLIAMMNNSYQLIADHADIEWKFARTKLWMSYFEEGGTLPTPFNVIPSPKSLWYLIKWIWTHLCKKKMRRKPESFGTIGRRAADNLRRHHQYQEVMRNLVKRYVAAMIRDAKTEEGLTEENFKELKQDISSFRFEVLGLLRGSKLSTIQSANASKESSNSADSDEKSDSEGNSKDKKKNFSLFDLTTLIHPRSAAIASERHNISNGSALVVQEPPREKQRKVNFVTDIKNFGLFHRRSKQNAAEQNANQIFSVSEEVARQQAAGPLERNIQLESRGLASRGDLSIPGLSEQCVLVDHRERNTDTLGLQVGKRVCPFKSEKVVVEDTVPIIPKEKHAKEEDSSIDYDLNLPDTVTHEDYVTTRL

IC50 (hTRPC5) | IC50 (hTRPC4) | Compound
< 100 nM | < 100 nM | Cn1c(=O)c2c(nc(Oc3cccc(OC(F)(F)F)c3)n2Cc2ccc(Cl)cc2)n(C)c1=O [Compound 142, 7-(4-chlorobenzyl)-1,3-dimethyl-8-(3-(trifluoromethoxy)phenoxy)-1H-purine-2,6(3H,7H)-dione]
2000 to 10000 nM | – | Cn1c(=O)c2c(nc(COCc3ccccc3)n2Cc2cccc(Br)c2)n(C)c1=O [Compound 45]
< 100 nM | – | CCCCC(=O)c1nc2c(c(=O)n(C)c(=O)n2C)n1Cc1cccc(Br)c1 [Compound 105, 7-(3-bromobenzyl)-1,3-dimethyl-8-pentanoyl-1H-purine-2,6(3H,7H)-dione]
2000 to 10000 nM | – | CCCCC(O)c1nc2c(c(=O)n(C)c(=O)n2C)n1Cc1cccc(Br)c1 (centres unmarked) [Compound 98]
2000 to 10000 nM | – | Cn1c(=O)c2c(nc(/C=C/c3ccccc3)n2Cc2cccc(Br)c2)n(C)c1=O [Compound 32]
2000 to 10000 nM | – | Cn1c(=O)c2c(nc(CCNCc3ccccc3)n2Cc2cccc(Br)c2)n(C)c1=O [Compound 47, 8-(2-(Benzylamino)ethyl)-7-(3-bromobenzyl)-1,3-dimethyl-1H-purine-2,6(3H,7H)-dione]
2000 to 10000 nM | – | Cn1c(=O)c2c(nc(SCC#N)n2Cc2cccc(Br)c2)n(C)c1=O [Compound 7]
2000 to 10000 nM | – | CCCOCCc1nc2c(c(=O)n(C)c(=O)n2C)n1Cc1cccc(OC)c1 [Compound 91]
100 to 500 nM | – | CCc1coc(CSc2nc3c(c(=O)n(C)c(=O)n3C)n2Cc2cccc(Br)c2)n1 [Compound 20, 7-(3-bromobenzyl)-8-((4-ethyloxazol-2-yl)methylthio)-1,3-dimethyl-1H-purine-2,6(3H,7H)-dione]
100 to 500 nM | – | Cn1c(=O)c2c(nc(SC(C)(C)C(=O)OC(C)(C)C)n2Cc2cccc(Br)c2)n(C)c1=O [Compound 3, Tert-butyl 2-(7-(3-bromobenzyl)-1,3-dimethyl-2,6-dioxo-2,3,6,7-tetrahydro-1H-purin-8-ylthio)-2-methylpropanoate]
